Experimental findings from patent publication US20260146035A1, “FUSED BICYCLIC COMPOUNDS AND THEIR USE AS MER AND AXL INHIBITORS” (DONG-A ST CO., LTD., priority 2022, published 2026) are described below.

One may read the IC50 as the concentration that gives 50% inhibition.

Where only a bound is given, the exact number is not on record here.

In one assay the target is T1, human MER (528-end) (Homo sapiens, UniProt Q12866).
T1 construct: human MER (528-end); purchased Camnabio, Japan
T1 sequence (Q12866 528-999 limits assumed): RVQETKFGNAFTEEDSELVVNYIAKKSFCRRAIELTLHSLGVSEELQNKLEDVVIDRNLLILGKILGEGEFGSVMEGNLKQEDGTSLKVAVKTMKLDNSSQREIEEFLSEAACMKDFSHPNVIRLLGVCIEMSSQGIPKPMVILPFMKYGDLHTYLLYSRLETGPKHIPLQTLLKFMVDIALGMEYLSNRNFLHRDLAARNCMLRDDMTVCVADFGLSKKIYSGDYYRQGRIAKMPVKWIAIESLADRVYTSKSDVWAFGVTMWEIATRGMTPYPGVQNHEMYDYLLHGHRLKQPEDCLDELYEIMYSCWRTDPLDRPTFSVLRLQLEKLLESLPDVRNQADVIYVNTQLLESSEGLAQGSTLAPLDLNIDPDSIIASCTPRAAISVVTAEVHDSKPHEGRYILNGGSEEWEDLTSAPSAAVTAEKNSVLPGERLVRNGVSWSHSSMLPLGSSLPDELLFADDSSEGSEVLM
The assay can be described thus: HTRF kinase activity biochemical assay, MER. The following applies: 10 μM ATP, 30 minutes pre-incubation; read-out: HTRF MERTK IC50.

For the next assay, the target named is T2, human AXL (473-end) (Homo sapiens, UniProt P30530).
T2 construct: human AXL (473-end); purchased SignalChem, Canada
T2 sequence (P30530 473-894 limits assumed): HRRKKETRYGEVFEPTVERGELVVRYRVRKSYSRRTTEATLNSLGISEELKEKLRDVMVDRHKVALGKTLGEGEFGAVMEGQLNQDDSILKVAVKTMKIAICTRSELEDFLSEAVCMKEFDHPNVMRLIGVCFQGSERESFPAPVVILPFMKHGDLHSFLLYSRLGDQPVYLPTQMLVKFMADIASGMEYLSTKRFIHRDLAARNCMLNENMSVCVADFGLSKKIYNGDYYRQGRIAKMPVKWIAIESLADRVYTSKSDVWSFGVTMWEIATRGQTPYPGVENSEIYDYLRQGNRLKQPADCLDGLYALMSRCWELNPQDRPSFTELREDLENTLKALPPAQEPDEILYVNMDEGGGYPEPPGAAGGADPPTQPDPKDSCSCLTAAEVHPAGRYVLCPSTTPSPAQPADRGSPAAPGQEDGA
Description: HTRF kinase activity biochemical assay, AXL. The following applies: 10 μM ATP, 30 minutes pre-incubation.

For a further assay, the target named is T3, human TYRO3 (455-end) (Homo sapiens, UniProt Q06418).
T3 construct: TYRO3 (455-end); purchased SignalChem, Canada
T3 sequence (Q06418 455-890 limits assumed): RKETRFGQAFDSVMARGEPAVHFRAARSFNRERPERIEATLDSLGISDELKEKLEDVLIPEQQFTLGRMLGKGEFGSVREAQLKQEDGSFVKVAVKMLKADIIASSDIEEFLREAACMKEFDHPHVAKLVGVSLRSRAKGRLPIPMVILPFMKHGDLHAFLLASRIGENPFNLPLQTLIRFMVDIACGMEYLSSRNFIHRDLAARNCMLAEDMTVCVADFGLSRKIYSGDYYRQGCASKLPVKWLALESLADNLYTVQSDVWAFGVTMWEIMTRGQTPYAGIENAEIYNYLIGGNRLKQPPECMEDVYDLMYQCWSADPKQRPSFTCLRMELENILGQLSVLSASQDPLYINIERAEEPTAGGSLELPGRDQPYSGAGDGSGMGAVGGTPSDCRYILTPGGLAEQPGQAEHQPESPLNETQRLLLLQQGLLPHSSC
The assay can be described thus: HTRF kinase activity biochemical assay, TYRO3. The following applies: 10 μM ATP, 30 minutes pre-incubation; read-out: HTRF TYRO IC50.

With `Cn1cc(-c2cnc(N)c(C(=O)N[C@H]3CCC[C@@H]3OCc3ccc(-c4ccc5c(c4)CC[C@@H]5N4CCN(C(CO)CO)CC4)cc3)c2)cn1` [Example 128, 2-amino-N-{(1S,2S)-2-[(4-{(1S)-1-[4-(1,3-dihydroxypropan-2-yl)piperazin-1-yl]-2,3-dihydro-1H-inden-5-yl}phenyl)methoxy]cyclopentyl}-5-(1-methyl-1H-pyrazol-4-yl)pyridine-3-carboxamide], the figures for the IC50 at human MER (528-end), against human AXL (473-end) and on human TYRO3 (455-end) were below 10 nM, below 10 nM and 100 to 1000 nM, respectively.

`Nc1ncc(-c2cccnc2F)cc1C(=O)N[C@H]1CCC[C@@H]1OCc1ccc(-c2ccc3c(c2)CC[C@@H]3N2CCN(C(CO)CO)CC2)cc1` [Example 129, 6-amino-N-{(1S,2S)-2-[(4-{(1S)-1-[4-(1,3-dihydroxypropan-2-yl)piperazin-1-yl]-2,3-dihydro-1H-inden-5-yl}phenyl)methoxy]cyclopentyl}-2′-fluoro[3,3′-bipyridine]-5-carboxamide]: the IC50 is below 10 nM on human MER (528-end), below 10 nM against human AXL (473-end) and above 1000 nM at human TYRO3 (455-end).

Take `CC1(C)CC(N2CCN(CCO)CC2)c2ccc(-c3ccc(CO[C@H]4CCC[C@@H]4NC(=O)c4cc(C(F)(F)F)cnc4N)cc3)cc21` (stereo partly drawn) [Example 130, 2-amino-N-{(1S,2S)-2-[(4-{1-[4-(2-hydroxyethyl)piperazin-1-yl]-3,3-dimethyl-2,3-dihydro-1H-inden-5-yl}phenyl)methoxy]cyclopentyl}-5-(trifluoromethyl)pyridine-3-carboxamide]: the values for the IC50 at human MER (528-end), against human AXL (473-end) and on human TYRO3 (455-end) were below 10 nM, below 10 nM and 100 to 1000 nM, respectively.

As to `Nc1ncc(C(F)(F)F)cc1C(=O)N[C@H]1CCC[C@@H]1OCc1ccc(-c2ccc3c(c2)CC[C@@H]3N2CCN(CCO)CC2)cc1` [Example 131, 2-amino-N-{(1S,2S)-2-[(4-{(1S)-1-[4-(2-hydroxyethyl)piperazin-1-yl]-2,3-dihydro-1H-inden-5-yl}phenyl)methoxy]cyclopentyl}-5-(trifluoromethyl)pyridine-3-carboxamide], the half-maximal inhibitory concentration (IC50) at human MER (528-end) was below 10 nM; against human AXL (473-end), below 10 nM; on human TYRO3 (455-end), 100 to 1000 nM.

With `Nc1ncc(-c2cncc(F)c2)cc1C(=O)N[C@H]1CCC[C@@H]1OCc1ccc(-c2ccc3c(c2)OCCC3N2CCN(CCO)CC2)cc1` (stereo partly drawn) [Example 132, 6-amino-5′-fluoro-N-{(1S,2S)-2-[(4-{4-[4-(2-hydroxyethyl)piperazin-1-yl]-3,4-dihydro-2H-1-benzopyran-7-yl}phenyl)methoxy]cyclopentyl}[3,3′-bipyridine]-5-carboxamide], the results for the IC50 on human MER (528-end), against human AXL (473-end) and on human TYRO3 (455-end) were below 10 nM, below 10 nM and 100 to 1000 nM, respectively.

Take `Nc1ncc(C(F)(F)F)cc1C(=O)N[C@H]1CCC[C@@H]1OCc1ccc(-c2ccc3c(c2)OCCC3N2CCN(CCO)CC2)cc1` (stereo partly drawn) [Example 133, 2-amino-N-{(1S,2S)-2-[(4-{4-[4-(2-hydroxyethyl)piperazin-1-yl]-3,4-dihydro-2H-1-benzopyran-7-yl}phenyl)methoxy]cyclopentyl}-5-(trifluoromethyl)pyridine-3-carboxamide]: the IC50 on human MER (528-end) was below 10 nM; against human AXL (473-end), below 10 nM; on human TYRO3 (455-end), above 1000 nM.

Take `Nc1ncc(-c2cccnc2F)cc1C(=O)N[C@H]1CCC[C@@H]1OCc1ccc(-c2ccc3c(c2)OCCC3N2CCN(CCO)CC2)cc1` (stereo partly drawn) [Example 134, 6-amino-2′-fluoro-N-{(1S,2S)-2-[(4-{4-[4-(2-hydroxyethyl)piperazin-1-yl]-3,4-dihydro-2H-1-benzopyran-7-yl}phenyl)methoxy]cyclopentyl}[3,3′-bipyridine]-5-carboxamide]: the figures for the IC50 on human MER (528-end), against human AXL (473-end) and on human TYRO3 (455-end) were below 10 nM, below 10 nM and 100 to 1000 nM, respectively.

On to `CC1(C)C[C@@H](N2CCN(CCO)CC2)c2ccc(-c3ccc(CO[C@H]4CCC[C@@H]4NC(=O)c4cc(-c5cccnc5F)cnc4N)cc3)cc21` [Example 135, 6-amino-2′-fluoro-N-{(1S,2S)-2-[(4-{(1R)-1-[4-(2-hydroxyethyl)piperazin-1-yl]-3,3-dimethyl-2,3-dihydro-1H-inden-5-yl}phenyl)methoxy]cyclopentyl}[3,3′-bipyridine]-5-carboxamide], for which the figures for the IC50 on human MER (528-end), on human AXL (473-end) and at human TYRO3 (455-end) were below 10 nM, below 10 nM and 100 to 1000 nM, respectively.

With `COc1ccnc(N)c1C(=O)N[C@H]1CCC[C@@H]1OCc1ccc(-c2ccc3c(c2)C(C)(C)CC3N2CCN(CCO)CC2)cc1` (stereo partly drawn) [Example 136, 2-amino-N-{(1S,2S)-2-[(4-{1-[4-(2-hydroxyethyl)piperazin-1-yl]-3,3-dimethyl-2,3-dihydro-1H-inden-5-yl}phenyl)methoxy]cyclopentyl}-4-methoxypyridine-3-carboxamide], the IC50 on human MER (528-end) was below 10 nM; at human AXL (473-end), below 10 nM; on human TYRO3 (455-end), 100 to 1000 nM.

As for `COc1ccnc(N)c1C(=O)N[C@H]1CCC[C@@H]1OCc1ccc(-c2ccc3c(c2)CC[C@@H]3N2CCN(CCO)CC2)cc1` [Example 137, 2-amino-N-{(1S,2S)-2-[(4-{(1S)-1-[4-(2-hydroxyethyl)piperazin-1-yl]-2,3-dihydro-1H-inden-5-yl}phenyl)methoxy]cyclopentyl}-4-methoxypyridine-3-carboxamide], the concentration for half-maximal inhibition (IC50) at human MER (528-end) was below 10 nM; on human AXL (473-end), below 10 nM; on human TYRO3 (455-end), 100 to 1000 nM.

In the case of `COc1ccnc(N)c1C(=O)N[C@H]1CCC[C@@H]1OCc1ccc(-c2ccc3c(c2)C(C)(C)CC3N2CCN(C)CC2)cc1` (stereo partly drawn) [Example 138, 2-amino-N-[(1S,2S)-2-({4-[3,3-dimethyl-1-(4-methylpiperazin-1-yl)-2,3-dihydro-1H-inden-5-yl]phenyl}methoxy)cyclopentyl]-4-methoxypyridine-3-carboxamide], the IC50 on human MER (528-end) is below 10 nM; against human AXL (473-end), below 10 nM; at human TYRO3 (455-end), 100 to 1000 nM.

On to `COc1ccnc(N)c1C(=O)N[C@H]1CCC[C@@H]1OCc1ccc(-c2ccc3c(c2)CC[C@@H]3N2CCN(C)CC2)cc1` [Example 139, 2-amino-4-methoxy-N-[(1S,2S)-2-({4-[(1S)-1-(4-methylpiperazin-1-yl)-2,3-dihydro-1H-inden-5-yl]phenyl}methoxy)cyclopentyl]pyridine-3-carboxamide], for which the IC50 was below 10 nM on human MER (528-end), below 10 nM at human AXL (473-end) and 100 to 1000 nM at human TYRO3 (455-end).

Turning to `CC1(C)CC(N2CCN(C(CO)CO)CC2)c2ccc(-c3ccc(CO[C@H]4CCC[C@@H]4NC(=O)c4cc(-c5cccnc5F)cnc4N)cc3)cc21` (stereo partly drawn) [Example 140, 6-amino-N-{(1S,2S)-2-[(4-{1-[4-(1,3-dihydroxypropan-2-yl)piperazin-1-yl]-3,3-dimethyl-2,3-dihydro-1H-inden-5-yl}phenyl)methoxy]cyclopentyl}-2′-fluoro[3,3′-bipyridine]-5-carboxamide], the results for the IC50 on human MER (528-end), on human AXL (473-end) and on human TYRO3 (455-end) were below 10 nM, below 10 nM and 100 to 1000 nM, respectively.

With `Cn1cc(-c2cnc(N)c(C(=O)N[C@H]3CCC[C@@H]3OCc3ccc(-c4ccc5c(c4)CCC[C@@H]5N4CCNCC4)cc3)c2)cn1` [Example 141, 2-amino-5-(1-methyl-1H-pyrazol-4-yl)-N-[(1S,2S)-2-({4-[(5S)-5-(piperazin-1-yl)-5,6,7,8-tetrahydronaphthalen-2-yl]phenyl}methoxy)cyclopentyl]pyridine-3-carboxamide], the IC50 on human MER (528-end) was below 10 nM; at human AXL (473-end), below 10 nM; at human TYRO3 (455-end), 10 to 100 nM.

Turning to `CN1CCN([C@H]2CCc3cc(-c4ccc(CO[C@H]5CCC[C@@H]5NC(=O)c5cc(C(F)(F)F)cnc5N)cc4)ccc32)CC1` [Example 143, 2-amino-N-[(1S,2S)-2-({4-[(1S)-1-(4-methylpiperazin-1-yl)-2,3-dihydro-1H-inden-5-yl]phenyl}methoxy)cyclopentyl]-5-(trifluoromethyl)pyridine-3-carboxamide], the IC50 on human MER (528-end) was below 10 nM; at human AXL (473-end) it was below 10 nM; on human TYRO3 (455-end) it was 100 to 1000 nM.
